Measurements taken from patent publication US9382254B2, “Compounds and pharmaceutical compositions thereof for the treatment of cystic fibrosis” (Galapagos NV, priority 2013, dated 2016).

Key:
Type in all cases: cell-based
CFTR-S549N = target: T1, CFTR-S549N (Homo sapiens, UniProt P13569, S549N); test: YFP-halide influx assay for the CFTR-S549N
T1 construct: expressed in transfected cells
Text: (§1) The YFP halide influx assay measures the functionality of the cystic fibrosis Transmembrane Conductance regulator (CFTR) channels. The assay is used to evaluate the capacity of compounds to increase the channel opening of existing mutant CFTR channels in the membrane. It makes use of the observation that the yellow fluorescent protein (YFP) variant YFP H148Q, I152L, […] has its fluorescence substantially quenched by halide ions like Cl^− and I^−. (Galietta, Haggie, & Verkman, 2001)
(§2) For this purpose, HEK293-cells are seeded in 96 well plates. During seeding, the cells are reverse-transfected with plasmid vectors that direct the expression of the CFTR G551D mutant and of the YFP reporter. Cells are incubated at 37° C., 5% CO2 for 24 hours so as to allow for sufficient expression of the CFTR protein.
(§3) The I^−-induced quenching of fluorescence is recorded immediately after injection of I^− for 7 seconds. The capacity of a compound to increase the channel opening is directly correlated with the decrease in fluorescence, and is expressed as (1-(fluorescence after 7 seconds (F)/fluorescence before injection (F0))) and an EC50 can be derived from a (1-F/F0) vs compound concentration plot.
(§4) Similar YHA assays were developed for other channel gating defective or channel conductance defective CFTR mutants to determine effect of compound on channel activity. Examples of mutants are G178R, G1349D, S549N, R117H, R334W. This assay is also used for additional class I CFTR mutants, including G542X, W1282X; class II mutants including N1303K, and for class III mutants including S1251N.

CFTR G551D mutant = target: T2, CFTR G551D mutant (Homo sapiens, UniProt P13569, G551D); test: YFP-halide influx assay for the CFTR-G551D mutation; details: HEK293 cells, forskolin 10.67 μM
T2 construct: expressed in transfected cells; host or cells: HEK293 (reverse transfection with plasmid)
T2 sequence (P13569 whole entry G551D): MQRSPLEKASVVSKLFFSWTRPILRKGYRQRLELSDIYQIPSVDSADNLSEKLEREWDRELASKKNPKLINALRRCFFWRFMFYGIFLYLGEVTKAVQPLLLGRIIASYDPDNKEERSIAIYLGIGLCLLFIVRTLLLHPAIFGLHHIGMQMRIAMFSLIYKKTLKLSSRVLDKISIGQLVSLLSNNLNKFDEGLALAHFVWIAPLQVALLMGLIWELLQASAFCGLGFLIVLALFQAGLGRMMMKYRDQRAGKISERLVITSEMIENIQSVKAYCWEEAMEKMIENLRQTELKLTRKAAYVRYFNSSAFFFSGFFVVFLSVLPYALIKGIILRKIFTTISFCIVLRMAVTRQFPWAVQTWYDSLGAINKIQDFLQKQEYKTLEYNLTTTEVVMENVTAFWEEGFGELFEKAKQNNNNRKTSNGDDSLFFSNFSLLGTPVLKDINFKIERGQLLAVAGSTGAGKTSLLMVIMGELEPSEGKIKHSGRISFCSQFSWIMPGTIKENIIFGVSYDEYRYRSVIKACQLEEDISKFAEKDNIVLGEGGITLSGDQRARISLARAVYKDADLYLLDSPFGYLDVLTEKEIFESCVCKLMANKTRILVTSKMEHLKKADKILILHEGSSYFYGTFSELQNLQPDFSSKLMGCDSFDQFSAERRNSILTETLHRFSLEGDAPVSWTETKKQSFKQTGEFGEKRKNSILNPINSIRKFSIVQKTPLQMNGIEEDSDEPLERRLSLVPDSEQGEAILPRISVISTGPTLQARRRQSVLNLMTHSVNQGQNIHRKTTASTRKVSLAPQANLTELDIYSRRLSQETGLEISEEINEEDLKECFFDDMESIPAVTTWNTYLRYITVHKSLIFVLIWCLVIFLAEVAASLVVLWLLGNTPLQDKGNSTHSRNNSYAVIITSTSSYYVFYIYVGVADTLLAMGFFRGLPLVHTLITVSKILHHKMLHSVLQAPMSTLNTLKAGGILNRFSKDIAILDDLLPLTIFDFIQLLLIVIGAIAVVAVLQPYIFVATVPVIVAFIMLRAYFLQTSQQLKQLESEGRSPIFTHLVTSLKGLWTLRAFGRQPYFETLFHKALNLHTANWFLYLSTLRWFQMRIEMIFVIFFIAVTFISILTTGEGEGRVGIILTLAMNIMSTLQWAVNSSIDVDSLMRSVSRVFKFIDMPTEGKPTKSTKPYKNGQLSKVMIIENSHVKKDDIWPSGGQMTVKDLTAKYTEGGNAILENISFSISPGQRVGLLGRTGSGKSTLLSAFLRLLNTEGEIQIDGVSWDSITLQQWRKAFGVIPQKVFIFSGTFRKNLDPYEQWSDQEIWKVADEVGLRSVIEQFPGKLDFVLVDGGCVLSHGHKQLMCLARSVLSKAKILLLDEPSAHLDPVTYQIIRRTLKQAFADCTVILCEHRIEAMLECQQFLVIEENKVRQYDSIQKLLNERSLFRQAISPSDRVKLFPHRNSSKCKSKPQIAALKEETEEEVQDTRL
Outline: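 Channel opening potentiation measured as 1−F/F0, where F is YFP fluorescence 7 s after iodide injection and F0 before; EC50 taken from concentration plot. Cells: HEK293 transiently expressing CFTR G551D plus halide-sensitive YFP (H148Q, I152L, F47L), 24 h at 37 °C, 5% CO2.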

CFTR-R117H = target: T3, CFTR-R117H (Homo sapiens, UniProt P13569, R117H); test: YFP-halide influx assay for the CFTR-R117H
T3 construct: expressed in transfected cells
T3 sequence (P13569 whole entry R117H): as the sequence (P13569 whole entry G551D) above, with R117H, D551G counted along it
Text: as §1, §2, §3, §4

CFTR-G1349D = target: T4, CFTR-G1349D (Homo sapiens, UniProt P13569, G1349D); test: YFP-halide influx assay for the CFTR-G1349D
T4 construct: expressed in transfected cells
T4 sequence (P13569 whole entry G1349D): as the sequence (P13569 whole entry G551D) above, with D551G, G1349D counted along it
Text: as §1, §2, §3, §4

CFTR ΔF508 mutant = target: T5, CFTR ΔF508 mutant (Homo sapiens, UniProt P13569, DEL508-508); test: YFP-halide influx assay for the CFTR-ΔF508 mutation (384 well, FDSS/μCell); details: CFBE41o- cells, CFTR-ΔF508, 1×D-PBS, fluorescence after 36 seconds
T5 construct: expressed in transfected cells; host or cells: CFBE41o- (adenoviral transduction)
T5 sequence (P13569 with tags, fused parts or gaps DEL508-508): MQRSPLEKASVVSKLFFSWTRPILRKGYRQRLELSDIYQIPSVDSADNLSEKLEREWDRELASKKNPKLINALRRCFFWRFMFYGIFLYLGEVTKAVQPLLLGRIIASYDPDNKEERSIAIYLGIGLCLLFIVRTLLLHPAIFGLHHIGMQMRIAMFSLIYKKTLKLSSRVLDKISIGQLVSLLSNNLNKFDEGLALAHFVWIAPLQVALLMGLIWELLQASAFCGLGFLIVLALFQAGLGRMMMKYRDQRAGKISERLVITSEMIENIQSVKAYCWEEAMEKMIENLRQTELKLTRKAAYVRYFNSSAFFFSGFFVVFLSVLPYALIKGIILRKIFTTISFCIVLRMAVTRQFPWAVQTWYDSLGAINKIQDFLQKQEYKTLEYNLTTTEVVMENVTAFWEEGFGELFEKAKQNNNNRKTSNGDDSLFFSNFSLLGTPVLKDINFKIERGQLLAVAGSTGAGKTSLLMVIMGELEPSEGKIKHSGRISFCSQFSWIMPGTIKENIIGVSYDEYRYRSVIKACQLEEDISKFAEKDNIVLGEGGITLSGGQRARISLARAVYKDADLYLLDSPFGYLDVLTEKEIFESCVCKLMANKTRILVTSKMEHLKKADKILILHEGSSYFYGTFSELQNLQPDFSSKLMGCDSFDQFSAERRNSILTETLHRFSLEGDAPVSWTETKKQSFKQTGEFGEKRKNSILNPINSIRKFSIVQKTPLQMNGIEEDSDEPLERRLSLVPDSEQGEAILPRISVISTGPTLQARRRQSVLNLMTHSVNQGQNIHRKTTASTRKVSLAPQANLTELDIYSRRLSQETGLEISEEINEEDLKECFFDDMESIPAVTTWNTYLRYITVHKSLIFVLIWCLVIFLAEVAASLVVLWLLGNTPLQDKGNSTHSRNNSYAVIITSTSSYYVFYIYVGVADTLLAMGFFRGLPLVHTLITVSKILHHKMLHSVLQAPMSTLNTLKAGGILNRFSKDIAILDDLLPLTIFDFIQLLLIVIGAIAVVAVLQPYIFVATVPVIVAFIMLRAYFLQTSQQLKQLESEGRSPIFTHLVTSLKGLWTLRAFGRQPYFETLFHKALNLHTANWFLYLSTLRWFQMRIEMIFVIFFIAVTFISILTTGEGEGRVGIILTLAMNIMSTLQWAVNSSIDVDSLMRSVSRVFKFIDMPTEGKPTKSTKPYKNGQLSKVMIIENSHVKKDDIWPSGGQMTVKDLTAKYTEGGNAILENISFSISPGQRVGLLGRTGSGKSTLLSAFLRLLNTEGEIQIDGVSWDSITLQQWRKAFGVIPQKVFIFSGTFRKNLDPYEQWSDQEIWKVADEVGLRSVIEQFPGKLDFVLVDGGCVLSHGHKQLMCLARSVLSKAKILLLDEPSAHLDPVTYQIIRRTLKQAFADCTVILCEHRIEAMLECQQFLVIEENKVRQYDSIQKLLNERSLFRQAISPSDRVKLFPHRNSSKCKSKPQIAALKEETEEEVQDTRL
Outline: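 Potentiator read-out as 1−F/F0, F taken 36 s after iodide addition, EC50 fitted against compound concentration. Cells: CFBE41o- expressing ΔF508 CFTR plus halide-sensitive YFP via adenovirus, rescued by 27 °C for 24 h or 24 h modulator at 37 °C.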

CFTR-G178R = target: T6, CFTR-G178R (Homo sapiens, UniProt P13569, G178R); test: YFP-halide influx assay for the CFTR-G178R
T6 construct: expressed in transfected cells
T6 sequence (P13569 whole entry G178R): as the sequence (P13569 whole entry G551D) above, with G178R, D551G counted along it
Text: as §1, §2, §3, §4

T1 sequence (P13569 whole entry S549N): as the sequence (P13569 whole entry G551D) above, with S549N, D551G counted along it

Row | EC50 (CFTR-S549N) [nM] | EC50 (CFTR G551D mutant) [nM] | EC50 (CFTR-R117H) [nM] | EC50 (CFTR-G1349D) [nM] | EC50 (CFTR ΔF508 mutant) [nM] | EC50 (CFTR-G178R) [nM] | SMILES
1 | 1830 | 1330 | 365 | 807 | 58.3 | 610 | CC(C)(O)C(=O)Nc1sc(S(=O)(=O)c2ccc(OC(F)(F)F)cn2)cc1C(N)=O [Compound 374, 2-[(2-hydroxy-2-methyl-propanoyl)amino]-5-[[5-(trifluoromethoxy)-2-pyridyl]sulfonyl] thiophene-3-carboxamide]
2 | 55.5 | 321 | 33.7 | 100 | 17.3 | 32.7 | CC(O)C(=O)Nc1sc(S(=O)(=O)c2ccc(C(F)(F)F)cc2F)cc1C(N)=O (stereo not drawn) [Compound 368, 5-[2-fluoro-4-(trifluoromethyl)phenyl]sulfonyl-2-(2-hydroxypropanoylamino) thiophene-3-carboxamide]
3 | 155 | 655 | 96.7 | 58.6 | 16.7 | 75.8 | C[C@@H](CO)C(=O)Nc1sc(S(=O)(=O)c2ccc(OC(F)(F)F)cc2)cc1C(N)=O [Compound 379, 2-[[(2S)-3-hydroxy-2-methyl-propanoyl]amino]-5-[4-(trifluoromethoxy)phenyl] sulfonyl-thiophene-3-carboxamide]
4 | 188 | 635 | 49.3 | 223 | 9.55 | 123 | CC(CO)C(=O)Nc1sc(S(=O)(=O)c2ccc(F)cc2Cl)cc1C(N)=O (stereo not drawn) [Compound 360, 5-(2-chloro-4-fluoro-phenyl)sulfonyl-2-[(3-hydroxy-2-methyl-propanoyl)amino] thiophene-3-carboxamide]
5 | 131 | 97.3 | 87.7 | 31.6 | 12.9 | 56.2 | NC(=O)c1cc(S(=O)(=O)c2ccccc2OC(F)(F)F)sc1NC(=O)C1(CO)CC1 [Compound 320, 2-[(1-Hydroxymethyl-cyclopropanecarbonyl)-amino]-5-(2-trifluoromethoxy-benzenesulfonyl)-thiophene-3-carboxylic acid amide]
6 | 445 | 691 | 142 | 195 | 11.6 | 74.6 | CC(CO)C(=O)Nc1sc(S(=O)(=O)c2ccc(C(F)(F)F)cc2)cc1C(N)=O (stereo not drawn) [Compound 369, 2-[(3-hydroxy-2-methyl-propanoyl)amino]-5-[4-(trifluoromethyl)phenyl] sulfonyl-thiophene-3-carboxamide]
7 | 522 | 562 | 95 | 117 | 8 | 67.7 | C[C@H](O)C(=O)Nc1sc(S(=O)(=O)c2ccc(OC(F)(F)F)cc2)cc1C(N)=O [Compound 331, 2-[[(2S)-2-hydroxypropanoyl]amino]-5-[4-(trifluoromethoxy)phenyl] sulfonyl-thiophene-3-carboxamide]
8 | 104 | 708 | 138 | 120 | 14.1 | 80.1 | CC(C)(O)C(=O)Nc1sc(S(=O)(=O)c2ncc(C(F)(F)F)cc2F)cc1C(N)=O [Compound 410, 5-[[3-fluoro-5-(trifluoromethyl)-2-pyridyl]sulfonyl]-2-[(2-hydroxy-2-methyl-propanoyl)amino] thiophene-3-carboxamide]
9 | 1810 | 553 | 283 | 1490 | 14.3 | 126 | CC(C)(O)C(=O)Nc1sc(S(=O)(=O)c2cc(F)c(F)cc2OC(F)F)cc1C(N)=O [Compound 404, 5-[2-(difluoromethoxy)-4,5-difluoro-phenyl] sulfonyl-2-[(2-hydroxy-2-methyl-propanoyl)amino] thiophene-3-carboxamide]
10 | 507 | 936 | 208 | 229 | 17.5 | 142 | CC(C)(O)C(=O)Nc1sc(S(=O)(=O)c2cc(Cl)cc(C(F)(F)F)c2)cc1C(N)=O [Compound 429, 5-[3-chloro-5-(trifluoromethyl)phenyl]sulfonyl-2-[(2-hydroxy-2-methyl-propanoyl)amino] thiophene-3-carboxamide]
11 | 621 | 678 | 465 | 617 | 26.6 | 250 | COc1cc(C#N)cc(S(=O)(=O)c2cc(C(N)=O)c(NC(=O)C(C)(C)O)s2)c1OC(F)F [Compound 419, 5-[5-cyano-2-(difluoromethoxy)-3-methoxy-phenyl]sulfonyl-2-[(2-hydroxy-2-methyl-propanoyl)amino] thiophene-3-carboxamide]
12 | 91.4 | 126 | 86.5 | 49.3 | 6.53 | 105 | CC(C)(O)C(=O)Nc1sc(S(=O)(=O)c2cc(Cl)ccc2OC(F)F)cc1C(N)=O [Compound 401, 5-[5-chloro-2-(difluoromethoxy)phenyl] sulfonyl-2-[(2-hydroxy-2-methyl-propanoyl)amino] thiophene-3-carboxamide]
13 | 405 | 1300 | 676 | 3330 | 48.8 | 217 | CC(C)(O)C(=O)Nc1sc(S(=O)(=O)c2ccc(C(C)(C)C)cn2)cc1C(N)=O [Compound 433, 5-[(5-tert-butyl-2-pyridyl)sulfonyl]-2-[(2-hdyroxy-2-methyl-propanoyl)amino] thiophene-3-carboxamide]
14 | 547 | 754 | 467 | 847 | 12.6 | 620 | CC(O)C(=O)Nc1sc(S(=O)(=O)c2cc(F)ccc2Cl)cc1C(N)=O (stereo not drawn) [Compound 333, 5-(2-chloro-5-fluoro-phenyl)sulfonyl-2-(2-hydroxypropanoylamino) thiophene-3-carboxamide]
15 | 1110 | 5530 | 1930 | 1540 | 69 | 1590 | CC(C)c1nn(C)cc1S(=O)(=O)c1cc(C(N)=O)c(NC(=O)C(C)(C)O)s1 [Compound 421, 2-[(2-hydroxy-2-methyl-propanoyl)amino]-5-(3-isopropyl-1-methyl-pyrazol-4-yl)sulfonyl-thiophene-3-carboxamide]
16 | 256 | 662 | 47.6 | 159 | 14.8 | 56.7 | CC(C)(O)C(=O)Nc1sc(S(=O)(=O)c2ccc(C#N)cc2OC(F)(F)F)cc1C(N)=O [Compound 393, 5-[4-cyano-2-(trifluoromethoxy)phenyl] sulfonyl-2-[(2-hydroxy-2-methyl-propanoyl)amino] thiophene-3-carboxamide]
17 | 251 | 522 | 138 | 173 | 8.07 | 86.9 | CC(C)(O)C(=O)Nc1sc(S(=O)(=O)c2ccc(C(F)(F)F)cc2F)cc1C(N)=O [Compound 376, 5-[2-fluoro-4-(trifluoromethyl)phenyl] sulfonyl-2-[(2-hydroxy-2-methyl-propanoyl)amino] thiophene-3-carboxamide]
18 | 678 | 1790 | 259 | 413 | 30.7 | 417 | CC(C)(O)C(=O)Nc1sc(S(=O)(=O)c2cnc(C(F)(F)F)cn2)cc1C(N)=O [Compound 397, 2-[(2-hydroxy-2-methyl-propanoyl)amino]-5-[5-(trifluoromethyl)pyrazin-2-yl]sulfonyl-thiophene-3-carboxamide]
19 | 2690 | 1400 | 851 | 2050 | 23.2 | 1680 | CC(O)C(=O)Nc1sc(S(=O)(=O)c2ccc(F)cc2Cl)cc1C(N)=O (stereo not drawn) [Compound 329, 5-(2-chloro-4-fluoro-phenyl) sulfonyl-2-(2-hydroxypropanoylamino) thiophene-3-carboxamide]
